Measurements reported in BigSolDB 2.1.

NC(N)=O
solubility (mole fraction)
Conditions | in ethanol | in isobutanol | in isopentanol | in isopropanol | in methanol | in n-butanol | in n-pentanol | in n-propanol | in water
293.15 K | 0.0395 | 0.017 | 0.0146 | 0.0253 | 0.0845 | 0.0163 | 0.0137 | 0.0246 | 0.252
303.15 K | 0.0548 | 0.0242 | 0.0162 | 0.0306 | 0.104 | 0.0209 | 0.0183 | 0.0402 | 0.294
318.15 K | 0.0874 | 0.0302 | 0.026 | 0.0425 | 0.165 | 0.0292 | 0.0241 | 0.0384 | 0.36
333.15 K | 0.127 | 0.0469 | 0.0368 | 0.058 | 0.225 | 0.0412 | 0.0354 | 0.0722 | 0.41
343.15 K | 0.155 | 0.0529 | 0.0451 | 0.0669 | 0.266 | 0.0504 | 0.0424 | 0.0704 | 0.465
